In data set [1] the target is T1, recombinant human PDK1 (Homo sapiens, UniProt Q15118).
T1 construct: purchased Abcam
The experiment in a line: PDK1 ADPGlo Kinase Assay. It counts as biochemical. Here is the method:
The ability of the tested compounds to hamper the activity of PDK1-4 isoforms was firstly evaluated by means of a chemioluminescent assay, the ADPGlo™ Kinase Assay kit (Promega Corporation, Madison, WI, USA).
(§1) The in vitro inhibitory activity of tested compounds on recombinant human PDK1-4 isoforms (Abcam, Cambridge, MA, USA) was evaluated by using the ADPGlo™ Kinase Assay kit from Promega (Promega Corporation, Madison, WI, USA) following the instructions of the manufacturer, as previously described.

Data set [2] concerns the target T2, recombinant human PDK4 (Homo sapiens, UniProt Q16654).
T2 construct: purchased Abcam
Nature of the data set: PDK4 ADPGlo Kinase Assay. The format is biochemical. The settings on record: 1.5 µM compound, 30 min, room temperature. Here is the method:
The ability of the tested compounds to hamper the activity of PDK1-4 isoforms was firstly evaluated by means of a chemioluminescent assay, the ADPGlo™ Kinase Assay kit (Promega Corporation, Madison, WI, USA). The results obtained by incubating PDK1-4 isoforms for 30 min at room temperature with 1.5 µM of tested compounds are depicted in Figure 3 panel A as a heat-map summary of the inhibition percentage on PDK1-4 enzymatic activity. All the newly synthesized compounds were able to inhibit the pyruvate dehydrogenase kinases, although to a different extent and showing a preferential activity towards the PDK1 and PDK4 isoforms. […] Conversely, all tested 1,2,4-triazin-3-amines were barely effective in blocking PDK2 activity at 1.5 µM concentration. In addition, IC50 values on the PDK1 isoform were also calculated for all synthesized derivatives and the results are shown in Table 2.
as §1
On the technique in general: In ADP-Glo the light output rises with the ADP produced.

For data set [3], the target named is recombinant human HSP90 (Homo sapiens, UniProt P07900). The experiment in a line: HSP90 inhibition assay (Transcreener ADP kit). It counts as biochemical. As to the method: Since the ATP binding pockets in PDKs and HSP90 are similar and taking into consideration that these 1,2,4-triazine derivatives conserved a chemical scaffold resembling that of the well-known Hsp90 inhibitor Ganetespib, the most performant PDK inhibitors 4d, 4f, 4h, 5d, 5f, 5h and 5j were also screened for their ability to target HSP90.
The in vitro inhibitory activity of tested compounds on recombinant human HSP90 was assessed by The Transcreener™ ADP kit (Bellbrook Labs, Madison, WI, USA) according to the manufacturer’s protocol as previously described.

For data set [4], the system named is BxPC-3 cells (KRAS-wild-type PDAC). The experiment in a line: 2D cytotoxicity, MTT assay, BxPC-3. The format is cell-based. The settings on record: Homo sapiens, BXPC-3; 72 h exposure, MTT test, 2D culture; read-out: IC50 (µM) ± S.D. BxPC-3 (2D). As to the method:
(§2) All newly developed 1,2,4-amino-triazine compounds were screened for their cytotoxic activity against two human PDAC cell lines, namely, a KRAS-wild-type PDAC cell line (BxPC-3 cells) and a KRAS-mutant PDAC cell line (PSN-1 cells). […] The cytotoxicity parameters, expressed in terms of IC50 and obtained after 72 h of drug exposure by MTT assay, are reported in Table 3.
(§3) All tested compounds were dissolved in DMSO just before the experiment, and a calculated amount of drug solution was added to the cell growth medium to a final solvent concentration of 0.5%, which had no detectable effects on cell viability.
(§4) Human pancreatic PSN-1 and BxPC-3 carcinoma cell lines were obtained by American Type Culture Collection (ATCC, Rockville, MD, USA). Cell lines were maintained in the logarithmic phase at 37 °C in a 5% carbon dioxide atmosphere using RPMI-1640 medium (EuroClone) containing 10% fetal calf serum (EuroClone, Milan, Italy), antibiotics (50 units/mL penicillin and 50 μg/mL streptomycin) and 2 mM l-glutamine.
(§5) The growth inhibitory effect on tumor cells was evaluated by means of MTT assay. Briefly, 5 × 10^3 cells/well were seeded in 96-well microplates in a growth medium (100 μL). After 24 h, the medium was removed and replaced with a fresh one containing the compound to be studied at the appropriate concentration. Triplicate cultures were established for each treatment. After 72 h, each well was treated with 10 μL of a 5 mg/mL MTT saline solution, and following 5 h of incubation, 100 μL of a sodium dodecyl sulfate (SDS) solution in HCl 0.01 M was added. After overnight incubation, cell growth inhibition was detected by measuring the absorbance of each well at 570 nm using a Bio-Rad 680 microplate reader. The mean absorbance for each drug dose was expressed as a percentage of the control untreated well absorbance and plotted vs. drug concentration. IC50 values, the drug concentrations that reduce the mean absorbance at 570 nm to 50% of those in the untreated control wells, were calculated by the four-parameter logistic (4-PL) model. The evaluation was based on means from at least four independent experiments.
(In general: Tetrazolium assays rely on reduction of a dye to a coloured formazan, in cell work by metabolically active cells.)

In data set [5] the test system is PSN-1 cells (KRAS-mutant PDAC). Nature of the data set: 2D cytotoxicity, MTT assay, PSN-1. The format is cell-based. The settings on record: Homo sapiens, PSN1; 72 h exposure, MTT test, 2D culture; read-out: IC50 (µM) ± S.D. PSN-1 (2D). Here is the method:
as §2, §3, §4, §5

In data set [6] the test system is BxPC-3 spheroids. The experiment in a line: 3D spheroid cytotoxicity, acid phosphatase (APH) assay, BxPC-3. It counts as cell-based. The settings on record: Homo sapiens, 72 h, acid phosphatase (APH) test, read-out: IC50 (µM) ± S.D. BxPC-3 (3D spheroids).
The subject of data set [7] is PSN-1 spheroids. Nature of the data set: 3D spheroid cytotoxicity, acid phosphatase (APH) assay, PSN-1. The format is cell-based. The settings on record: Homo sapiens, PSN1, 72 h, acid phosphatase (APH) test, read-out: IC50 (µM) ± S.D. PSN-1 (3D spheroids). Here is the method: Prompted by these encouraging results, we also screened the newly developed 1,2,4-triazine compounds against 3D spheroids of PDAC KRAS wild-type and mutant cells, to further estimate their anticancer potential in a more predictive environment. […] The PDAC cancer spheroids were treated with tested compounds for 72 h, and cell viability was assessed by means of the acid phosphatase (APH) assay (Table 3). The efficacy of gemcitabine as well as of DCA and DAP was assessed under the same experimental conditions.
Spheroid cultures were obtained by seeding 2.5 × 10^3 PSN-1 cancer cells/well in a round-bottom non-treated tissue culture 96-well plate (Greiner Bio-one, Kremsmünster, Austria) in phenol red-free RPMI-1640 medium (Sigma Chemical Co, St. Louis, MO, USA) containing 10% fetal calf serum and supplemented with 20% methylcellulose stock solution.
An APH-modified assay was used for determining cell viability in 3D spheroids, as previously described. Briefly, the pre-seeded spheroids were treated with fresh medium containing the compound to be studied at the appropriate concentration (range 2.5–200 μM). Triplicate cultures were established for each treatment. After 72 h, each well was treated with 100 μL of the assay buffer (0.1 M sodium acetate, 0.1% Triton-X-100, supplemented with ImmunoPure p-nitrophenyl phosphate; Sigma Chemical Co.) and, following 3 h of incubation, 10 μL of 1 M NaOH solution were added. The inhibition of the cell growth induced by the tested compounds was detected by measuring the absorbance of each well at 405 nm, using a Bio-Rad 680 microplate reader. The mean absorbance for each drug dose was expressed as a percentage of the control untreated well absorbance (T/C) and plotted vs. drug concentration. IC50 values, the drug concentrations that reduce the mean absorbance at 405 nm 50% of those in the untreated control wells, were calculated by the four-parameter logistic (4-PL) model. The evaluation was based on means from at least four independent experiments.

T1 sequence (Q15118 29-436): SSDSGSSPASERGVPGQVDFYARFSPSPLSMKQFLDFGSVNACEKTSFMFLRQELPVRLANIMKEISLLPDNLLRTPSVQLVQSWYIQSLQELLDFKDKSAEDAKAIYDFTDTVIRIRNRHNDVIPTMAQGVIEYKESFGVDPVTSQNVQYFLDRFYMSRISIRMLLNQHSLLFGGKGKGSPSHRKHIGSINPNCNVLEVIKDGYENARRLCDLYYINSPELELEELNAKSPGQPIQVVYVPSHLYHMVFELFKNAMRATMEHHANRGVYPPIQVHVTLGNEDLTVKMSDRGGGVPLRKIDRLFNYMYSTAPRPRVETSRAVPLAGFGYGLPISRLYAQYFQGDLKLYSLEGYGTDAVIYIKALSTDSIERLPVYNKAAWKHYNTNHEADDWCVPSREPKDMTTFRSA
T2 sequence (Q16654 whole entry): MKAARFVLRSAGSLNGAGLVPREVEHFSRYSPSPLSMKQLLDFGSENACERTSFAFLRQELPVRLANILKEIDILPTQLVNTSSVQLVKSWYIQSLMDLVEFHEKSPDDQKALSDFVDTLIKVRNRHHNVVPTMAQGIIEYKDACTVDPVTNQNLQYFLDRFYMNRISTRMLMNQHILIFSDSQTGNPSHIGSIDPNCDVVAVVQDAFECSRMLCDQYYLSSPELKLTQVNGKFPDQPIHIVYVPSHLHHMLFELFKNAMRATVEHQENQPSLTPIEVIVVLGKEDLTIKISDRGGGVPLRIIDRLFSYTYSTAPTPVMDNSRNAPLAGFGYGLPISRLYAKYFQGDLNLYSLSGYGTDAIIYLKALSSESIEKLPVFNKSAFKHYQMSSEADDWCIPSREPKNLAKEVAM

By IC50 is commonly meant the midpoint of a concentration-inhibition curve. Usually melting point stands for the temperature, or range, at which the solid turns liquid. `COc1ccc2c(c1)c(-c1nc(N)nnc1-c1cn(C)c3ncc(Br)cc13)cn2C` [5j, 6-(5-Bromo-1-methyl-1H-pyrrolo[2,3-b]pyridin-3-yl)-5-(5-methoxy-1-methyl-1H-indol-3-yl)-1,2,4-triazin-3-amine] registered a melting point of 269.8 °C. For the same compound, the “inhibition of PDK1 enzymatic activity” value in data set [1] (1.5 µM compound, 30 min, room temperature) is reported as “totally hampered”. For the same compound, in data set [1] (isolated PDK1 isoform, four-parameter logistic model, mean of 3 independent experiments, read-out: IC50 (µM) ± S.D. PDK1), the IC50 was found to be 0.04 ± 0.02 µM. Moreover, in data set [2], the “inhibition of PDK4 enzymatic activity” value is “completely suppress”. The “decrease of HSP90 catalytic activity” value in data set [3] (1.5 µM compound (equi-doses)) is 60–80%. Moreover, the IC50 in data set [3] (isolated HSP90, four-parameter logistic model, mean of 3 independent experiments, read-out: IC50 (µM) ± S.D. HSP90) amounted to 0.18 ± 0.04 µM. In addition, in data set [4], the IC50 is 0.04 ± 0.02 µM. Moreover, in data set [5], the IC50 is 0.1 ± 0.03 µM. For the same compound, in data set [6], the IC50 amounted to 79.5 ± 5.4 µM. The IC50 in data set [7] turned out to be 89.7 ± 5.7 µM.
